For test [1], the target named is G protein-coupled receptor kinase 6 (Homo sapiens, UniProt P43250).
Test [2] deals with Dual specificity testis-specific protein kinase 2 (Homo sapiens, UniProt Q96S53).
For another test, the target named is T1, UMP-CMP kinase (Homo sapiens, UniProt P30085).
T1 sequence (P30085 whole entry): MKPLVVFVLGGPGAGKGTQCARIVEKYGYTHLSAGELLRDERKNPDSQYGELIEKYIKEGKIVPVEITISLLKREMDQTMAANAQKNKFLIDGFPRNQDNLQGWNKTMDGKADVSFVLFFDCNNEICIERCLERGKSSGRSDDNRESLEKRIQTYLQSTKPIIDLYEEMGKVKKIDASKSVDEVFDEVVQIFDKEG

Test [3] concerns the target Uncharacterized aarF domain-containing protein kinase 5 (Homo sapiens, UniProt Q3MIX3).
Test [4] concerns the target Tyrosine-protein kinase Lck (Homo sapiens, UniProt P06239).
The next test concerns the target Myosin-10 (Homo sapiens, UniProt P35580).
In test [5] the target is Hepatocyte growth factor receptor (Homo sapiens, UniProt P08581).
Hepatocyte growth factor receptor, sequence (P08581 whole entry): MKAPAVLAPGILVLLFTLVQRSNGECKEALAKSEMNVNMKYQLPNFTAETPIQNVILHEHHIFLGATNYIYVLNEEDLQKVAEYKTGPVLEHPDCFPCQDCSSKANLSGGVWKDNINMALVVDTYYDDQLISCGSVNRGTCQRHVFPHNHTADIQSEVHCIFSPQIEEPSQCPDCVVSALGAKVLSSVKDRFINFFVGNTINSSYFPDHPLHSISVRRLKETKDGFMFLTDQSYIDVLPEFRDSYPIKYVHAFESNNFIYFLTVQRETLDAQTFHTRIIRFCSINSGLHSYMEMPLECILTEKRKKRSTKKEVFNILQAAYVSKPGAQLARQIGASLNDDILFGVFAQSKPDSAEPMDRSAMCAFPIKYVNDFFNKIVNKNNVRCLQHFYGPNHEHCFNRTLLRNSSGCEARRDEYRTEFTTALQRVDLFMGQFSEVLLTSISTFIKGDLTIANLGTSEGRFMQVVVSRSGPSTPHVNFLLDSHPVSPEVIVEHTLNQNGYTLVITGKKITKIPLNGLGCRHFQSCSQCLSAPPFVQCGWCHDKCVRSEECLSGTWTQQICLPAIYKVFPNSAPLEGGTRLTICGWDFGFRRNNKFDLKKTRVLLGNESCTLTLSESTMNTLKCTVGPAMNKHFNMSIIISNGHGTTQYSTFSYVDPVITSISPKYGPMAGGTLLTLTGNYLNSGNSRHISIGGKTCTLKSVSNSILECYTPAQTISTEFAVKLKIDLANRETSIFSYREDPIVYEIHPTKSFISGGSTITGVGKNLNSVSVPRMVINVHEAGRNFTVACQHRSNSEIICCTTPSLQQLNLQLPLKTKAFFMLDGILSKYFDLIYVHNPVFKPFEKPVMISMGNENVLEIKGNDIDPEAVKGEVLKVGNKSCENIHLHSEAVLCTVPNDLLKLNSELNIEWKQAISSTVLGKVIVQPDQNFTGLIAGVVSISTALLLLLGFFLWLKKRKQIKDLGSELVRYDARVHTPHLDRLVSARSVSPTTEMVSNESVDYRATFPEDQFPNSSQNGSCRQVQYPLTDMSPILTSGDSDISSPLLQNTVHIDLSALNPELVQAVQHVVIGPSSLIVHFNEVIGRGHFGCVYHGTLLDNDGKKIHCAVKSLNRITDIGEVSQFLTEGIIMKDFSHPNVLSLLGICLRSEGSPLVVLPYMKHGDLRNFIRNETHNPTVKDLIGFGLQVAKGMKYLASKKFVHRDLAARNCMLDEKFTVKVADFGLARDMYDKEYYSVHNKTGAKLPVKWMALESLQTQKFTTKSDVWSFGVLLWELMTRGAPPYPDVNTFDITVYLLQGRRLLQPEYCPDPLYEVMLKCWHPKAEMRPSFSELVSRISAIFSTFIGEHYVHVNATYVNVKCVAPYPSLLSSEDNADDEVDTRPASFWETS
The target in test [6] is Dual specificity protein kinase CLK2 (Homo sapiens, UniProt P49760).
Dual specificity protein kinase CLK2, sequence (P49760 whole entry): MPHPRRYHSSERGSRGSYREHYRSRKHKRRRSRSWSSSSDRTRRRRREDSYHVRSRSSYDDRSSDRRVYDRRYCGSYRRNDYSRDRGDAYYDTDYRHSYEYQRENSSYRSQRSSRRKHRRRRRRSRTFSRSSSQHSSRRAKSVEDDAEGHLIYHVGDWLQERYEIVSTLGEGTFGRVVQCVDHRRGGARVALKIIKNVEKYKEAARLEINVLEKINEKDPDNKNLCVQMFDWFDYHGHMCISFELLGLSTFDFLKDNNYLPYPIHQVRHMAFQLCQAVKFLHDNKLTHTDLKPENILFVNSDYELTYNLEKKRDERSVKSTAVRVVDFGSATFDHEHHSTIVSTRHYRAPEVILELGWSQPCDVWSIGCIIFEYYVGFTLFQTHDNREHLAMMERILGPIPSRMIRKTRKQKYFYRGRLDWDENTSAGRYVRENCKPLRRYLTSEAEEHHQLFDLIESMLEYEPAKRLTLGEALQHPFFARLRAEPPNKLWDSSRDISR
Test [7] deals with T2, ATP-dependent RNA helicase DHX30 (Homo sapiens, UniProt Q7L2E3).
T2 sequence (Q7L2E3 whole entry): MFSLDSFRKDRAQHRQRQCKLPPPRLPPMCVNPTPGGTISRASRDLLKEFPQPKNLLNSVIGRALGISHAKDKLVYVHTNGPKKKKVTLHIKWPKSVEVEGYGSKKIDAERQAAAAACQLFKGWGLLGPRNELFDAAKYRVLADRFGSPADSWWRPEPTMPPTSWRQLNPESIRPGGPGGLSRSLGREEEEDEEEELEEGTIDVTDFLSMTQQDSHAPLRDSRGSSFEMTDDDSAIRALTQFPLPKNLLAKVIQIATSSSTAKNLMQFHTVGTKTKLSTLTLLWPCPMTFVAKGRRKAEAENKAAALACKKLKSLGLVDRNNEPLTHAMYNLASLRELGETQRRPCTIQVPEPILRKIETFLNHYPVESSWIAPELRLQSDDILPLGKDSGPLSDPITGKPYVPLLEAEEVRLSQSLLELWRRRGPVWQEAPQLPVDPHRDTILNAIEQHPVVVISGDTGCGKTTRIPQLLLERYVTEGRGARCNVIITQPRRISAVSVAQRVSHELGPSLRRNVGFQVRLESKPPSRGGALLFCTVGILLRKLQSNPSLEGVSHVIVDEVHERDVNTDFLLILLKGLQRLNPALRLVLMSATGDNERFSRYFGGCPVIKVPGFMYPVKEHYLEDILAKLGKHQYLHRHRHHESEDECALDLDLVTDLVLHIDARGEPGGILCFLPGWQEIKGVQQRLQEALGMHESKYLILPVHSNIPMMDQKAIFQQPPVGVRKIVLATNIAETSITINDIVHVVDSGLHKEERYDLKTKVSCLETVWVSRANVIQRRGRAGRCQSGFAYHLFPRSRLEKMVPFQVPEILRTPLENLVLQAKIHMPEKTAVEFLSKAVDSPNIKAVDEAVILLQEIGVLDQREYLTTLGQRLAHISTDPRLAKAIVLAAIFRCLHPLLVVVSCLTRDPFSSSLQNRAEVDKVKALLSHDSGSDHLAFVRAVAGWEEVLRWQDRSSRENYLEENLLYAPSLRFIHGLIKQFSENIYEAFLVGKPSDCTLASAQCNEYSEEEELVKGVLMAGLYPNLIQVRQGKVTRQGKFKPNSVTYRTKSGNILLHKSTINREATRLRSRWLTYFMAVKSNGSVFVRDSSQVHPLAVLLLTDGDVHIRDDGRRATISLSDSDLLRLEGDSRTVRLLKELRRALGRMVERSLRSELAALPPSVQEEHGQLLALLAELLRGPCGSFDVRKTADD

The target of test [8] is Rho-associated protein kinase 1 (Homo sapiens, UniProt Q13464).
In test [9] the target is T3, Eukaryotic translation initiation factor 5B (Homo sapiens, UniProt O60841).
T3 sequence (O60841 whole entry): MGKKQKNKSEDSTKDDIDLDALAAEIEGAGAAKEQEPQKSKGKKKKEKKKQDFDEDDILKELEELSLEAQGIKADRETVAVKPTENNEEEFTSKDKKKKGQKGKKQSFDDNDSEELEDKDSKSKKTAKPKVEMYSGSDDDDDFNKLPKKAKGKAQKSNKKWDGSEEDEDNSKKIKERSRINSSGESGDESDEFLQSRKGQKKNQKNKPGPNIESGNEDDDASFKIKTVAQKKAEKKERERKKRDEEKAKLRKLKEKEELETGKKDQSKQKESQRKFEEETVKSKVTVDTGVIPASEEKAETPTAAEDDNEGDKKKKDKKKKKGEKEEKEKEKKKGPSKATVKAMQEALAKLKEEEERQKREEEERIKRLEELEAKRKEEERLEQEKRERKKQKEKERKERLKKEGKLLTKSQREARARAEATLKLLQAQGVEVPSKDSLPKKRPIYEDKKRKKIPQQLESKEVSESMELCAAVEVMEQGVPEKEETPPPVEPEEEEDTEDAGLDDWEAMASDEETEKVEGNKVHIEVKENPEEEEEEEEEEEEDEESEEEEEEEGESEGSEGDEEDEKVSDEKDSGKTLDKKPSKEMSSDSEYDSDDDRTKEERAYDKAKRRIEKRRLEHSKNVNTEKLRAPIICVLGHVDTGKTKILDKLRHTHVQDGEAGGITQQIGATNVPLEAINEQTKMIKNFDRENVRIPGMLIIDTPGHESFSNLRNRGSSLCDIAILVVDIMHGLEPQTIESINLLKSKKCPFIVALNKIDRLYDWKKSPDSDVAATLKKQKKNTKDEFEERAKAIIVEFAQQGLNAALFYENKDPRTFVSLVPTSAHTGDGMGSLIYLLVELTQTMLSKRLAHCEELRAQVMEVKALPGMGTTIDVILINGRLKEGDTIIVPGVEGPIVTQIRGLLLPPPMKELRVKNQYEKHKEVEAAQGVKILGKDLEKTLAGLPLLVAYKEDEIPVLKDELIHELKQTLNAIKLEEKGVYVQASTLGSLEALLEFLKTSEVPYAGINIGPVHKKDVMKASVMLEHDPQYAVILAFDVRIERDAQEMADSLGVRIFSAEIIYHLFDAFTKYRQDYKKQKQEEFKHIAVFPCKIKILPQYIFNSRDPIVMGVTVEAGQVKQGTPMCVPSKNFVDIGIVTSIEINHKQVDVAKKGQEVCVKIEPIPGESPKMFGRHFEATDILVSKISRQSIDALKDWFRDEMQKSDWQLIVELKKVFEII

Activity calls are given as the source filed them. Bounds are passed on as bounds.
Also: in the data inactive means no Kd found up to 30 µM.

Tyrosine-protein kinase Lck, sequence (P06239 whole entry): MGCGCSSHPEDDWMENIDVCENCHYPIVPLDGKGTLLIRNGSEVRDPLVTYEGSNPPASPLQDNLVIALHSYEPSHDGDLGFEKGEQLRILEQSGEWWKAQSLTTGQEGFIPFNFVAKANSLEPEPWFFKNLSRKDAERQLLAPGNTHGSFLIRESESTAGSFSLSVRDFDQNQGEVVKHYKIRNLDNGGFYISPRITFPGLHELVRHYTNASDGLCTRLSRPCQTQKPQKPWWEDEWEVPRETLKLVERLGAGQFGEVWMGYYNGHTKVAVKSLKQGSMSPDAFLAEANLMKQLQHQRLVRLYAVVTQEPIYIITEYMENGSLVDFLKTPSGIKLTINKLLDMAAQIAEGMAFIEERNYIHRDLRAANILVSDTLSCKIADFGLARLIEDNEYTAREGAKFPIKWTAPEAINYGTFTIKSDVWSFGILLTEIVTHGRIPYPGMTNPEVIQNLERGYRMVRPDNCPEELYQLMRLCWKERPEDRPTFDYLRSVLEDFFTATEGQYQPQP
Myosin-10, sequence (P35580 whole entry): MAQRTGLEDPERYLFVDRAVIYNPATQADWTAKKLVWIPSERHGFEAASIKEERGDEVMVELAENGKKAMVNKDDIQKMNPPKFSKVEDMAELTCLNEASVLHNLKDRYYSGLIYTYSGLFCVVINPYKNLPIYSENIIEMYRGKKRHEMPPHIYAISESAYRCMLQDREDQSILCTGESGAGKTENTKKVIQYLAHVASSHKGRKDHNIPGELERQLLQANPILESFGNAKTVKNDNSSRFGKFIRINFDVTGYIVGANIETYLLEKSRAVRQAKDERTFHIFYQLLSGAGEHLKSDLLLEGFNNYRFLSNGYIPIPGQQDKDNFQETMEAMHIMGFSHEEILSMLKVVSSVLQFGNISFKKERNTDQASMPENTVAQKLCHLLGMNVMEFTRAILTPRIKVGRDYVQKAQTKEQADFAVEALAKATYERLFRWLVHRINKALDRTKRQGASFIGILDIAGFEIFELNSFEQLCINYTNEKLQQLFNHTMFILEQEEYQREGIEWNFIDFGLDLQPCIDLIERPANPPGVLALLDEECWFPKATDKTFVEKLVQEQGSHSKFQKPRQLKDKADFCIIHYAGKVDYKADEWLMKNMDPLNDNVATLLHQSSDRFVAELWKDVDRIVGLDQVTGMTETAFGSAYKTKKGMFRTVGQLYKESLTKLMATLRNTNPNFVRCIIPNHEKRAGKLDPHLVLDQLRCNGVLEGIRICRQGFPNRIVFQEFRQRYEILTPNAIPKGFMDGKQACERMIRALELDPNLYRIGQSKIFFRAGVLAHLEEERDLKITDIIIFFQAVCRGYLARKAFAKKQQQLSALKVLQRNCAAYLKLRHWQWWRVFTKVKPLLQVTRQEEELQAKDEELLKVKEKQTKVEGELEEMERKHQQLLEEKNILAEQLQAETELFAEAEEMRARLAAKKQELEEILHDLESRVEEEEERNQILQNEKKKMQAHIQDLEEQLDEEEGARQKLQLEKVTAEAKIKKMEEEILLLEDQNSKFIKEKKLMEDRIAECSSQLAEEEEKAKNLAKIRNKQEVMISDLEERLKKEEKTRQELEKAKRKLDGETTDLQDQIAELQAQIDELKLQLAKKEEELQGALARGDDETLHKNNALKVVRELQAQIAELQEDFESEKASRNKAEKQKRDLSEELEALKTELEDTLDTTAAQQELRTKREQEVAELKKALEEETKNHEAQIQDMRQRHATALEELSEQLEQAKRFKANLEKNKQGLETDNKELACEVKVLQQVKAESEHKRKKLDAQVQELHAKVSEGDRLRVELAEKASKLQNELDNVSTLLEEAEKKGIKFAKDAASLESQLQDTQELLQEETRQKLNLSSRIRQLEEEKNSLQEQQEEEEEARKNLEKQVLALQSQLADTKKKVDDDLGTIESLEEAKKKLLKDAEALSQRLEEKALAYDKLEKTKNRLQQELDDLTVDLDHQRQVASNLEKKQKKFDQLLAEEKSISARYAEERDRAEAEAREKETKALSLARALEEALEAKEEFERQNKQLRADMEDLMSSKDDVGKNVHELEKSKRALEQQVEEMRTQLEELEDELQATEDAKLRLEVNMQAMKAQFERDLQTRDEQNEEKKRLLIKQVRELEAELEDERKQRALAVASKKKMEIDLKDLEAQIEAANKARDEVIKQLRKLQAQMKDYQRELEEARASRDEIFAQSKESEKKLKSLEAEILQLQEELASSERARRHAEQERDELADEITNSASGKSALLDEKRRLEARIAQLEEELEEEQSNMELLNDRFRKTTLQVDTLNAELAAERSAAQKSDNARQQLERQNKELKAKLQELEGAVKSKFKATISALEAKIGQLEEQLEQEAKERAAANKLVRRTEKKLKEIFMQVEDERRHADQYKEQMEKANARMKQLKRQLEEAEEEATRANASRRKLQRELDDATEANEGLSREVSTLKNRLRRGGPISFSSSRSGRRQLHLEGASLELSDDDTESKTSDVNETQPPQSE
Uncharacterized aarF domain-containing protein kinase 5, sequence (Q3MIX3 whole entry, the tested form may be a part): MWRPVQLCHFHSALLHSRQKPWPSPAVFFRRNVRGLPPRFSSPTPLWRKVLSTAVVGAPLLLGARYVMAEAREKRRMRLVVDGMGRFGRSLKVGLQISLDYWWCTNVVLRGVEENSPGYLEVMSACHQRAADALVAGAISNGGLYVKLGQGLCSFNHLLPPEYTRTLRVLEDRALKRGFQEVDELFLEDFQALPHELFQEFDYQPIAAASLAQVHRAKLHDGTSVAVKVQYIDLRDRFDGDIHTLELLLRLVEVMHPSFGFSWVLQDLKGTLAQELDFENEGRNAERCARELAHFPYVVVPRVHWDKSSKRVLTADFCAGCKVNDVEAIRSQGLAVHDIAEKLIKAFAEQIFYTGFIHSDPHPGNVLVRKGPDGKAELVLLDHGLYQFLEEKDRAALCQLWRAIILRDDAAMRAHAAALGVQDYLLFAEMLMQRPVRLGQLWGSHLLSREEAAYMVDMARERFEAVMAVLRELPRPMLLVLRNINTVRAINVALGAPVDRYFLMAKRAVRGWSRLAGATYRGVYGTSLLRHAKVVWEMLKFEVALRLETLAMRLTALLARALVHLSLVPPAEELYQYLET

Broadly, the Kd is the free concentration of one partner at which half of the binding sites on the other are occupied at equilibrium, for simple one-to-one binding. On to `C#Cc1cccc(Nc2ncnc3cc4c(cc23)OCCOCCOCCO4)c1` [ICOTINIB], for which the Kd (in test [1]; in test [2]; on UMP-CMP kinase; in test [3]; in test [4]; at Myosin-10) was > 30 µM (inactive) each time. Also, the Kd in test [5], in test [6], in [7], in [8] and in [9] was > 30 µM (inactive) each time.

In the case of `Cn1cc(-c2[nH]c3cc(NC(=O)[C@H](N)C4CCCCC4)cc4c3c2C=NNC4=O)cn1`, the Kd in test [1] was > 30 µM (inactive); in [2], > 30 µM (inactive); on UMP-CMP kinase it was > 30 µM (inactive); in [3], > 30 µM (inactive); in test [4], 1.38 µM (active); on Myosin-10, > 30 µM (inactive). Moreover, the Kd in test [5], in [6], in [7] and in [8] was > 30 µM (inactive) throughout.

On to `CCc1cc2c(cc1N1CCC(N3CCOCC3)CC1)C(C)(C)c1[nH]c3cc(C#N)ccc3c1C2=O` [ALECTINIB], for which the Kd (in test [1]; in [2]; on UMP-CMP kinase; in test [3]; in test [4]; at Myosin-10) was > 30 µM (inactive) each time. Also, the Kd was > 30 µM (inactive) in [5]; 2.32 µM (active) in test [6]; > 30 µM (inactive) in [7]; > 30 µM (inactive) in test [8]; > 30 µM (inactive) in test [9].

Regarding `COc1cc2ncnc(Nc3ccc(F)c(Cl)c3)c2cc1NC(=O)/C=C/CN1CCCCC1` [DACOMITINIB ANHYDROUS], the Kd (in [1]; in test [2]; at UMP-CMP kinase; in test [3]; in [4]; in test [5]) was > 30 µM (inactive) each time. Further, the Kd in [6], in test [7], in [8] and in test [9] was > 30 µM (inactive) each time.

With `CNC(=O)c1cccc(-c2ccc3c(N4CCOC[C@@H]4C)nc(N4CCOC[C@@H]4C)nc3n2)c1` [VISTUSERTIB], the Kd (in [1]; in test [2]; on UMP-CMP kinase; in test [3]; in test [4]; at Myosin-10) was > 30 µM (inactive) in each case. Moreover, the Kd in test [5], in test [6], in test [8] and in [9] was > 30 µM (inactive) throughout.

For `COc1ccc2c(OCc3nnc4ccc(-c5ccccc5)nn34)ccnc2c1` [AMG-208], the Kd (in test [1]; in test [2]; on UMP-CMP kinase; in [3]; in test [4]; on Myosin-10) was > 30 µM (inactive) throughout. The Kd in [5] was 0.028 µM (active); in test [6], > 30 µM (inactive); in test [8] it was > 30 µM (inactive); in test [9] it was > 30 µM (inactive).

Take `COc1ccc(-c2ccc3ncc4c(c3c2)n(-c2ccc(N3CCNCC3)c(C(F)(F)F)c2)c(=O)n4C)cn1` [BGT-226 FREE BASE]: the Kd (in [1]; in test [2]; on UMP-CMP kinase; in test [3]; in [4]; on Myosin-10) was > 30 µM (inactive) each time. Also, the Kd in test [5], in test [6], in test [8] and in [9] was > 30 µM (inactive) in each case.
